Results on nine compounds are retold here after patent US20130130912A1, “AGROCHEMICAL FORMULATION COMPOSITION” (priority 2010, published 2013).

Bounds are passed on as bounds.

A short description of data set [1]: solubility of pesticide actives in dialkyl carbonate solvents (CIPAC method MT181). In kind it is physicochemical. Particulars: 20 deg C.; for solubility in Bis-(2-ethylhexyl) carbonate solvent: Bis-(2-ethylhexyl) carbonate solvent (comparative). The text has this: All solubility measurements are done according to the CIPAC method MT181.
Data set [2] in a line: phytotoxic properties of dialkyl carbonates. The text has this:
A further advantage of the dialkylcarbonates used, is their compatibility with construction materials used in spraying equipment.

Take `CCC(CC)Nc1c([N+](=O)[O-])cc(C)c(C)c1[N+](=O)[O-]` [Pendimethalin]: in data set [1], the “solubility in Bis-(2-ethylhexyl) carbonate solvent” value is listed as 80-100 grams/litre, the “SOLUBILITY OF PESTICIDE ACTIVES IN di-n-butylcarbonate (DNBC) SOLVENT” value is reported as more than 300 grams/litre, the “solubility in di-n-pentyl carbonate solvent” value is more than 100 grams/litre and the “SOLUBILITY OF PESTICIDE ACTIVES IN di-n-propylcarbonate (DNPC) SOLVENT” value is more than 300 grams/litre.

As to `O=C(Nc1ccc(F)cc1F)c1cccnc1Oc1cccc(C(F)(F)F)c1` [Diflufenican], in data set [1], the “solubility in Bis-(2-ethylhexyl) carbonate solvent” value is reported as less than 10 grams/litre, the “SOLUBILITY OF PESTICIDE ACTIVES IN di-n-butylcarbonate (DNBC) SOLVENT” value is on record as less than 50 grams/litre and the “solubility in di-n-pentyl carbonate solvent” value is listed as 14-20 grams/litre.

In the case of `CCNc1nc(NC(C)C)nc(SC)n1` [Ametryn], in data set [1], the “solubility in Bis-(2-ethylhexyl) carbonate solvent” value is given as 80-100 grams/litre, the “SOLUBILITY OF PESTICIDE ACTIVES IN di-n-butylcarbonate (DNBC) SOLVENT” value came out at 350 grams/litre, the “solubility in di-n-pentyl carbonate solvent” value came to 120 grams/litre and the “SOLUBILITY OF PESTICIDE ACTIVES IN di-n-propylcarbonate (DNPC) SOLVENT” value is given as more than 250 grams/litre.

On to `CCCCOC(=O)OCCCC` [di-n-butyl carbonate, di-n-butylcarbonate], for which the phytotoxicity entry in data set [2] is “not to be phytotoxic”.

With `CC(C)(C)C(O)C(Oc1ccc(Cl)cc1)n1cncn1` (centres unmarked) [Triadimenol], in data set [1], the “solubility in Bis-(2-ethylhexyl) carbonate solvent” value is listed as less than 10 grams/litre, the “SOLUBILITY OF PESTICIDE ACTIVES IN di-n-butylcarbonate (DNBC) SOLVENT” value is listed as 45 grams/litre and the “solubility in di-n-pentyl carbonate solvent” value is 20-25 grams/litre.

With `CC(C)(C)C(O)(CCc1ccc(Cl)cc1)Cn1cncn1` (centres unmarked) [Tebuconazole], in data set [1], the “solubility in Bis-(2-ethylhexyl) carbonate solvent” value is recorded as less than 10 grams/litre, the “SOLUBILITY OF PESTICIDE ACTIVES IN di-n-butylcarbonate (DNBC) SOLVENT” value worked out at 140 grams/litre, the “solubility in di-n-pentyl carbonate solvent” value was 33-40 grams/litre and the “SOLUBILITY OF PESTICIDE ACTIVES IN di-n-propylcarbonate (DNPC) SOLVENT” value is more than 100 grams/litre.

As to `Fc1ccc([C@]2(Cn3cncn3)O[C@H]2c2ccccc2Cl)cc1` (racemic) [Epoxiconazole], in data set [1], the “solubility in Bis-(2-ethylhexyl) carbonate solvent” value is reported as less than 10 grams/litre, the “SOLUBILITY OF PESTICIDE ACTIVES IN di-n-butylcarbonate (DNBC) SOLVENT” value is on record as 45 grams/litre and the “solubility in di-n-pentyl carbonate solvent” value is 20-25 grams/litre.

In the case of `CCc1cccc(C)c1N(C(=O)CCl)C(C)COC` (centres unmarked) [Metolachlor], in data set [1], the “solubility in Bis-(2-ethylhexyl) carbonate solvent” value is on record as more than 200 grams/litre, the “SOLUBILITY OF PESTICIDE ACTIVES IN di-n-butylcarbonate (DNBC) SOLVENT” value is more than 600 grams/litre and the “solubility in di-n-pentyl carbonate solvent” value is recorded as more than 200 grams/litre.

On to `CCCN(CCC)c1c([N+](=O)[O-])cc(C(F)(F)F)cc1[N+](=O)[O-]` [Trifluralin], for which, in data set [1], the “solubility in Bis-(2-ethylhexyl) carbonate solvent” value is on record as 80-100 grams/litre, the “SOLUBILITY OF PESTICIDE ACTIVES IN di-n-butylcarbonate (DNBC) SOLVENT” value is given as more than 600 grams/litre, the “solubility in di-n-pentyl carbonate solvent” value is more than 250 grams/litre and the “SOLUBILITY OF PESTICIDE ACTIVES IN di-n-propylcarbonate (DNPC) SOLVENT” value is given as more than 600 grams/litre.
